Measurements taken from US12297192B2, “Crystal form of pyrimidine sulfonamide compound and preparation method therefor” (WUXI BIOCITY BIOPHARMACEUTICS CO., LTD., priority 2019, dated 2025).
Where two headings read alike, the source gives them in different places.

How the values were obtained:
[1] = Pharmacokinetics accompanying the efficacy in the MCT-induced rat model of pulmonary hypertension; format: in vivo, SD rats; settings: day 21, mean, n = 3; for MRT inf: read-out: MRT0-inf; for MRT last: read-out: MRT0-last
Experimental: Blood samples were taken before and after dosing on the day of the endpoint, at time points of 0, 0.25, 0.5, 1, 2, 4, 6 and 8 h. The rats were placed in a fixator, 250 μL of blood was collected from the tail vein, transferred to an EP tube with anticoagulant (5-8 μL of 15% EDTA), inverted and shaken, and immediately placed on wet ice for temporary storage. The collected blood samples were placed in centrifugal machines and centrifuged at 4° C., 3000 rpm for 15 min. The plasma was collected after centrifugation and immediately placed on dry ice. After all samples have been collected and transferred to cryopreservation at −80° C. for pharmacokinetic analysis.
Blood samples were collected before and after dosing on day 21 and collected at time points 0, 0.25, 0.5, 1, 2, 4, 6 and 8 h for analysis of plasma drug concentrations of the compound of formula (I) and Macitentan.

[2] = tested on: pulmonary hypertension in SD rats induced by monocrotaline (MCT); assay: In vivo pharmacodynamic evaluation, monocrotaline (MCT)-induced pulmonary hypertension model; settings: for 21-day weight change rate / PCNA positivity rate / Percentage of middle pulmonary artery intima-media thickness / Right ventricular ejection fraction / Right ventricular hypertrophy index / Right ventricular systolic pressure / Right ventricular wall thickness: 21 days, Mean ± SEM, n = 12
Text: The animal model of pulmonary hypertension in SD rats induced by monocrotaline (MCT) was used in this study to examine the pharmacological effects of the test compound on a rat model of pulmonary hypertension.
• Species: Rat • Strain: Sprague-Dawley • Age at arrival at animal house: 5 weeks • Gender: Male • Animal weight at the start of the experiment: 200-260 g • Number: 88 (81 for pharmacodynamic (PD) and pharmacokinetic (PK) tests and 7 for PK-blank matrix) • Supplier: Shanghai SLAC Experimental Animals Co. • Certificate of the animals: 20170005008695 Other Reagent Information
Solutions of 3 mg/mL Macitentan, 0.1 mg/mL, 0.3 mg/mL and 1 mg/mL the compound of formula (I): an appropriate amount of the compound was weighed and added to a flask with an appropriate volume. PEG 400 of 20% of the total volume was added. Heating and stirring were conducted at 40° C. Tween 80 of 0.5% of the total volume was added. Heating and stirring were conducted at 40° C. Deionized water of 70-75% of the volume was added. Heating and stirring were conducted at 40° C. The pH was adjusted with 5 N NaOH until became clear. Then the pH was reversely adjusted to less than 9 with 6 N HCl and 1 N HCl. The remaining volume was made up with deionized water to achieve the total volume. The final pH was determined (9±0.1).
After the animals had been acclimatized for about 1 week, the animals were randomized into 9 groups according to body weight and the condition of the animal, as shown in Table 15.
Monitoring Indicators Monitoring Indicators in PD Tests • 1) Daily monitoring of the general condition of the animals and their body weights; • 2) Right ventricular function tests: right ventricular ejection fraction (RVEF), right ventricular wall thickness (RVWT); • 3) Hemodynamic tests: right ventricular systolic pressure (RVSP); • 4) Determination of the right ventricular hypertrophy index (RVHI): RV/(LV+SEP); • 5) […] staining to observe PAWT/IHC staining to observe PCNA as the endpoint detection. Monitoring Indicators in PK Tests • 1) Daily monitoring of the general condition of the animals and their body weights; • 2) Plasma: determination of the pharmacokinetic parameters of the compounds in plasma. Test Method B-Mode Ultrasonic Detection of RVEF, RVWT
Rats were anesthetized with 30 mg/mL pentobarbital sodium (2 mL/kg, ip) and RVEF, RVWT were measured using a small animal ultrasound instrument (VEVO-1100).
Rats were anesthetized with 30 mg/mL sodium pentobarbital (2 mL/kg, ip), fixed onto a surgical plate in supine position, and shaved on the neck. A skin incision was made on the neck. The subcutaneous tissue and muscle layer were bluntly dissected. And the left carotid artery and right jugular vein were stripped. A rat-specific right heart catheter (a PE tube with an external diameter of about 1.5 mm and a small arc-shaped curve at the distal end) connected to a pressure transducer and filled with 0.3% heparin sodium solution was inserted into the right external jugular vein. The arc of the pulmonary artery catheter was kept downwards during the operation and the pulmonary artery catheter was threaded towards the right atrium. The pressure waveform was used to judge whether it had reached the heart. The catheter was deflected towards the left and pushed forward into the right ventricle.
The heart was removed. The atria and great vessels were removed. Blotted to dryness with filter paper. The right ventricle was stripped and weighed to calculate RVHI=RV/(LV+SEP).
After euthanasia of the rats, the middle lobe of the right lung was removed, perfused using saline and placed in 4% paraformaldehyde for fixation for the purpose of pathological examination.
All data was entered into an Excel document and expressed as mean (Mean)±standard error of mean (SEM). One-way ANOVA with Dunnett's t test was used to analyze and compare the data of each group. Differences between two groups were compared using the unpaired two-tailed t-test method.

[3] = Sprague-Dawley, rat, plasma, po, 1 mg/kg gavage
[4] = Sprague-Dawley, rat, plasma, po, 3 mg/kg gavage
[5] = Sprague-Dawley, rat, plasma, po, 30 mg/kg gavage

In the case of `COCCNS(=O)(=O)Nc1ncnc(OCCOc2ncc(Br)cn2)c1-c1ccc2c(c1)OCO2` [Compound of formula (I)], the AUC0-inf/AUC0-last ([1]; 1 mg/kg gavage) is reported as 111%, the Tlast ([1]; 1 mg/kg gavage) is reported as 8.00 h and the AUC0-inf/AUC0-last ([1]; 3 mg/kg gavage) is reported as 132%. For the same compound, the AUC(0-inf) ([1]; 3 mg/kg gavage) was 5540 ng·h/mL, the Tlast ([1]; 3 mg/kg gavage) was 8.00 h and the AUC(0-inf) ([1]; Sprague-Dawley, rat, plasma, po, 1 mg/kg, 1 mg/kg gavage, read-out: AUC0-inf) was 1410 ng·h/mL. For the same compound, the AUC(0-inf) ([1]; Sprague-Dawley, rat, plasma, po, 3 mg/kg, 3 mg/kg gavage, read-out: AUC0-inf) was 5230 ng·h/mL, the AUC(0-t) [1, 3] was 1270 ng·h/mL and the Cmax [1, 3] was 345 nM. For the same compound, the Tmax [1, 3] was 1 h, the half-life [1, 3] was 2.3 h and the MRT inf [1, 3] was 3.64 h. The MRT last [1, 3] was 2.83 h, the AUC(0-t) [1, 4] was 4220 ng·h/mL and the Cmax [1, 4] was 1120 nM. The Tmax [1, 4] was 1 h, the half-life [1, 4] was 3.64 h and the MRT inf [1, 4] was 5.52 h. The MRT last [1, 4] was 3.04 h, the “21-day weight change rate” value ([2]; 1 mg/kg PO/QD) was 43.33 ± 1.56% and the PCNA positivity rate ([2]; 1 mg/kg PO/QD) was 3.6 ± 0.69 %. For the same compound, the “Percentage of middle pulmonary artery intima-media thickness” value (“Percentage” below) ([2]; 1 mg/kg PO/QD) was 40.44 ± 1.13 %, the “Right ventricular ejection fraction” value ([2]; 1 mg/kg PO/QD) was 58.48 ± 2.11 % and the “Right ventricular hypertrophy index” value ([2]; 1 mg/kg PO/QD) was 0.40 ± 0.01. For the same compound, the “Right ventricular systolic pressure” value ([2]; 1 mg/kg PO/QD) was 40.72 ± 3.38 mmHg, the “Right ventricular wall thickness” value ([2]; 1 mg/kg PO/QD) was 1.16 ± 0.05 mm and the “21-day weight change rate” value ([2]; 3 mg/kg PO/QD) was 41.23 ± 3.47%. For the same compound, the PCNA positivity rate ([2]; 3 mg/kg PO/QD) was 3.56 ± 0.66 %, the “Percentage” value ([2]; 3 mg/kg PO/QD) was 35.44 ± 1.55 % and the “Right ventricular ejection fraction” value ([2]; 3 mg/kg PO/QD) was 58 ± 1.80 %. The “Right ventricular hypertrophy index” value ([2]; 3 mg/kg PO/QD) was 0.38 ± 0.03, the “Right ventricular systolic pressure” value ([2]; 3 mg/kg PO/QD) was 36.70 ± 3.81 mmHg and the “Right ventricular wall thickness” value ([2]; 3 mg/kg PO/QD) was 1.11 ± 0.05 mm. The “21-day weight change rate” value ([2]; 10 mg/kg PO/QD) was 42.04 ± 3.07%, the PCNA positivity rate ([2]; 10 mg/kg PO/QD) was 2.85 ± 0.65 % and the “Percentage” value ([2]; 10 mg/kg PO/QD) was 40.11 ± 1.07 %. For the same compound, the “Right ventricular ejection fraction” value ([2]; 10 mg/kg PO/QD) was 59.86 ± 2.29 %, the “Right ventricular hypertrophy index” value ([2]; 10 mg/kg PO/QD) was 0.36 ± 0.02 and the “Right ventricular systolic pressure” value ([2]; 10 mg/kg PO/QD) was 37.82 ± 3.10 mmHg. The “Right ventricular wall thickness” value ([2]; 10 mg/kg PO/QD) was 1.10 ± 0.05 mm and the “Indicators of pulmonary hypertension and right ventricular function (in words)” value ([2]; doses of 1, 3 and 10 mg/kg) was “significantly improved”.

`CCCNS(=O)(=O)Nc1ncnc(OCCOc2ncc(Br)cn2)c1-c1ccc(Br)cc1` [Macitentan, reference compound] gave a Tlast ([1]; 30 mg/kg gavage) of 8.00 h, an AUC(0-t) [1, 5] of 11000 ng·h/mL and a Cmax [1, 5] of 1840 nM. For the same compound, the Tmax [1, 5] was 4.08 h, the MRT last [1, 5] was 4.38 h and the “21-day weight change rate” value ([2]; 30 mg/kg gavage once a day) was 45.75 ± 2.14%. For the same compound, the PCNA positivity rate ([2]; 30 mg/kg gavage once a day) was 4.43 ± 0.42%, the “Percentage” value ([2]; 30 mg/kg gavage once a day) was 46.56 ± 1.07 % and the “Right ventricular ejection fraction” value ([2]; 30 mg/kg gavage once a day) was 58.87 ± 1.71 %. For the same compound, the “Right ventricular hypertrophy index” value ([2]; 30 mg/kg gavage once a day) was 0.36 ± 0.03, the “Right ventricular systolic pressure” value ([2]; 30 mg/kg gavage once a day) was 38.71 ± 3.52 mmHg and the “Right ventricular wall thickness” value ([2]; 30 mg/kg gavage once a day) was 1.13 ± 0.04 mm.
